# Measured values from patent publication US20090143279A1 (priority 2007, published 2009).
# Where two headings read alike, the source gives them in different places.
# How the values were obtained:
# mtOXPHOS transcripts = format: cell-based, mouse
# cytochrome c = format: cell-based, mouse; conditions: for cyt c (composite Z-score): normalized score vs mock-treated (DMSO) wells
# [1] = test system: cellular dehydrogenase activity
# reactive oxygen species = format: cell-based, mouse
# nuOXPHOS transcripts = format: cell-based, mouse
# [2] = test system: mitochondrial membrane potential; format: cell-based, mouse
# OXPHOS gene expression = format: cell-based, mouse
# [3] = Conc 20 μM, normalized score vs mock-treated (DMSO) wells
# [4] = composite Z-score vs mock-treated (DMSO) wells, concentration of each compound in μM
# [5] = normalized composite Z-score vs mock-treated (DMSO) wells, Conc 20 μM
# [6] = composite Z-score vs mock-treated (DMSO) wells, Conc 20 μM
# [7] = composite Z-score vs DMSO, Conc 20 μM
# [8] = 20 μM, composite Z-score vs DMSO
compound,measurement,setting,value
C=C1C2CC[C@@]3(C)[C@H](c4ccoc4)OC(=O)C[C@]13O[C@H]1C[C@H](OC(C)=O)C(C)(C)[C@H](CC(=O)OC)[C@@]21C,Viability (composite Z-score),C2C12 myotubes; [3],−0.316
same,mitoOX (composite Z-score),mtOXPHOS transcripts; [3],1.332
same,cyt c (composite Z-score),cytochrome c; Conc 20 μM,−0.069
same,MTT (composite Z-score),[1]; [3],−0.881
same,ROS (composite Z-score),reactive oxygen species; [3],−0.319
same,nucOX (composite Z-score),nuOXPHOS transcripts; [3],0.446
same,ΔΨm (composite Z-score),[2]; [3],−0.388
same,GE-HTS (composite Z-score),OXPHOS gene expression; [3],0.772
CC(C(=O)O)[C@H]1CCC2C3CC=C4C[C@@H](O)CC[C@]4(C)C3CC[C@@]21C (stereo partly drawn),Viability,C2C12 myotubes; [4],−0.295
same,mitoOX,mtOXPHOS transcripts; [4],0.486
same,cyt c,cytochrome c; [4],−0.309
same,MTT,[1]; [4],−0.244
same,ROS,reactive oxygen species; [4],0.315
same,nucOX,nuOXPHOS transcripts; [4],0.793
same,ΔΨm,[2]; [4],−0.402
same,GE-HTS,OXPHOS gene expression; [4],0.756
CC(=O)O[C@H]1CC[C@]2(C)C(C[C@H](OC(C)=O)[C@]3(C)C4=CC(=O)OC(c5ccoc5)[C@@]4(C)CCC23)C1(C)C (stereo partly drawn),Viability (composite Z-score),C2C12 myotubes; [3],−0.292
same,mitoOX (composite Z-score),mtOXPHOS transcripts; [3],−0.653
same,cyt c (composite Z-score),cytochrome c; Conc 20 μM,0.161
same,MTT (composite Z-score),[1]; [3],−0.810
same,ROS (composite Z-score),reactive oxygen species; [3],1.848
same,nucOX (composite Z-score),nuOXPHOS transcripts; [3],−1.228
same,ΔΨm (composite Z-score),[2]; [3],−0.208
same,GE-HTS (composite Z-score),OXPHOS gene expression; [3],−1.124
COc1ccc2c(c1)C1(C)CCC(=O)CC1CC2 (stereo not drawn) [listing 1 of 2 here],Viability (composite Z-score),C2C12 myotubes; [3],−1.914
same,mitoOX (composite Z-score),mtOXPHOS transcripts; [3],0.061
same,cyt c (composite Z-score),cytochrome c; Conc 20 μM,−0.239
same,MTT (composite Z-score),[1]; [3],−1.993
same,ROS (composite Z-score),reactive oxygen species; [3],0.625
same,nucOX (composite Z-score),nuOXPHOS transcripts; [3],0.140
same,ΔΨm (composite Z-score),[2]; [3],−0.939
same,GE-HTS (composite Z-score),OXPHOS gene expression; [3],0.129
COc1ccc2c(c1)C1(C)CCC(=O)CC1CC2 (stereo not drawn) [listing 2 of 2 here],Viability,C2C12 myotubes; [5],−0.071
same,mitoOX,mtOXPHOS transcripts; [5],−0.652
same,cyt c,cytochrome c; [5],0.380
same,MTT,[1]; [5],−2.008
same,ROS,reactive oxygen species; [5],1.860
same,nucOX,nuOXPHOS transcripts; [5],−0.582
same,ΔΨm,[2]; [5],−0.173
same,GE-HTS,OXPHOS gene expression; [5],−0.632
O=C(O)c1nc2cc(Cl)c(Cl)cc2nc1O,Viability (composite Z-score),C2C12 myotubes; [3],0.109
same,mitoOX (composite Z-score),mtOXPHOS transcripts; [3],−0.230
same,cyt c (composite Z-score),cytochrome c; Conc 20 μM,0.217
same,MTT (composite Z-score),[1]; [3],−0.131
same,ROS (composite Z-score),reactive oxygen species; [3],0.666
same,nucOX (composite Z-score),nuOXPHOS transcripts; [3],−0.313
same,ΔΨm (composite Z-score),[2]; [3],−0.521
same,GE-HTS (composite Z-score),OXPHOS gene expression; [3],−0.320
O=C(O)CCC/C=C\CC1COC(C(F)(F)F)OC1c1ccccc1O (stereo not drawn),Viability,C2C12 myotubes; [4],−0.413
same,mitoOX,mtOXPHOS transcripts; [4],0.594
same,cyt c,cytochrome c; [4],−0.437
same,MTT,[1]; [4],−0.548
same,ROS,reactive oxygen species; [4],0.713
same,nucOX,nuOXPHOS transcripts; [4],0.169
same,ΔΨm,[2]; [4],−0.087
same,GE-HTS,OXPHOS gene expression; [4],0.344
CC1(C)CC2C1CC[C@]1(CBr)CCC3C(CC(=O)O)C(=O)O[C@@]32C1 (stereo partly drawn),Viability,C2C12 myotubes; [5],−0.498
same,mitoOX,mtOXPHOS transcripts; [5],−1.624
same,cyt c,cytochrome c; [5],0.551
same,MTT,[1]; [5],−0.892
same,ROS,reactive oxygen species; [5],0.604
same,nucOX,nuOXPHOS transcripts; [5],−0.612
same,ΔΨm,[2]; [5],−0.084
same,GE-HTS,OXPHOS gene expression; [5],−1.029
COC(=O)[C@@H]1OC(=O)C2OC23[C@@]1(C)CCC1[C@]2(C)C(C[C@@H](O)[C@]13C)C(C)(C)[C@H](OC(C)=O)C[C@@H]2OC(C)=O (stereo partly drawn),Viability,C2C12 myotubes; [6],0.474
same,mitoOX,mtOXPHOS transcripts; [6],−0.039
same,cyt c,cytochrome c; [6],1.004
same,MTT,[1]; [6],−0.427
same,ROS,reactive oxygen species; [6],0.177
same,nucOX,nuOXPHOS transcripts; [6],−0.485
same,ΔΨm,[2]; [6],−0.579
same,GE-HTS,OXPHOS gene expression; [6],−0.376
COC(=O)CCC(=O)O[C@H]1CC[C@@]2(C)[C@@H](CC[C@@H]3[C@@H]2C(=O)C(O)[C@]2(C)[C@@H]4[C@H](C[C@@H]32)O[C@]2(CC[C@@H](C)CO2)[C@H]4C)C1 (stereo partly drawn),Viability,C2C12 myotubes; [7],−0.315
same,mitoOX,mtOXPHOS transcripts; [7],−0.217
same,cyt c,cytochrome c; [7],−0.005
same,MTT,[1]; [7],−1.387
same,ROS,reactive oxygen species; [7],0.918
same,nucOX,nuOXPHOS transcripts; [7],0.054
same,ΔΨm,[2]; [7],−0.760
same,GE-HTS,OXPHOS gene expression; [7],−0.063
COC(=O)c1cccc2cc(OC)c(OC)c(OC)c2c1=O,Viability,C2C12 myotubes; [6],−0.836
same,mitoOX,mtOXPHOS transcripts; [6],0.117
same,cyt c,cytochrome c; [6],−0.229
same,MTT,[1]; [6],−2.317
same,ROS,reactive oxygen species; [6],0.800
same,nucOX,nuOXPHOS transcripts; [6],0.287
same,ΔΨm,[2]; [6],−0.254
same,GE-HTS,OXPHOS gene expression; [6],0.231
NC(=O)c1ccc[n+]([C@@H]2O[C@H](COP(=O)([O-])OP(=O)(O)OC[C@H]3O[C@@H](n4cnc5c(N)ncnc54)[C@H](OP(=O)(O)O)[C@@H]3O)[C@@H](O)[C@H]2O)c1,Viability,C2C12 myotubes; [8],−0.562
same,mitoOX,mtOXPHOS transcripts; [8],−0.615
same,cyt c,cytochrome c; [8],0.101
same,MTT,[1]; [8],−1.286
same,ROS,reactive oxygen species; [8],−0.038
same,nucOX,nuOXPHOS transcripts; [8],−0.307
same,ΔΨm,[2]; [8],−0.582
same,GE-HTS,OXPHOS gene expression; [8],−0.424
cinnarazine,Viability,C2C12 myotubes,0.752
same,Viability (composite Z-score),C2C12 myotubes,−0.692
same,mitoOX (composite Z-score),mtOXPHOS transcripts,0.349
same,MTT,[1],−1.003
same,MTT (composite Z-score),[1],−0.009
same,ROS,reactive oxygen species,0.777
same,ROS (composite Z-score),reactive oxygen species,1.252
same,nucOX (composite Z-score),nuOXPHOS transcripts,0.338
same,ΔΨm,[2],0.544
same,ΔΨm (composite Z-score),[2],−0.711
same,GE-HTS (composite Z-score),OXPHOS gene expression,0.362
nonoxynol-9,Viability,C2C12 myotubes; [4],−0.209
same,mitoOX,mtOXPHOS transcripts; [4],−0.138
same,MTT,[1]; [4],−1.228
same,ROS,reactive oxygen species; [4],0.528
same,nucOX,nuOXPHOS transcripts; [4],−1.114
same,ΔΨm,[2]; [4],−1.484
same,GE-HTS,OXPHOS gene expression; [4],−0.872
